The target of data set [1] is T1, MMNAT (Mycobacterium marinum, UniProt B2HIZ6). The data set can be described thus: ESI-MS analysis of covalent enzyme-inhibitor adducts. In kind it is binding, M. marinum. As to conditions: enzyme-to-inhibitor ratio 1∶1; for Δm of enzyme-inhibitor adduct (MMNAT): 24°C, 30–60 min; for Molar ratio (inhibitor/protein) (MMNAT): proposed number of inhibition species bound per protein molecule. How it is done: ESI-MS was performed as described previously. A sample of 2.5 mg/mL (80 µM) MMNAT was analyzed on a Micromass LCT mass spectrometer. The samples were pretreated with DMSO or 0.08–1.2 mM inhibitor dissolved in DMSO to a final percentage of 5% (v/v) DMSO and incubated for 30–60 min before analysis. ESI-MS analysis was performed in positive ion mode after denaturation in 50% v/v acetonitrile in water with an accuracy of ±0.1%. The sample was run over a desalting column prior to MS analysis.
T1 sequence (B2HIZ6 entry or part of it): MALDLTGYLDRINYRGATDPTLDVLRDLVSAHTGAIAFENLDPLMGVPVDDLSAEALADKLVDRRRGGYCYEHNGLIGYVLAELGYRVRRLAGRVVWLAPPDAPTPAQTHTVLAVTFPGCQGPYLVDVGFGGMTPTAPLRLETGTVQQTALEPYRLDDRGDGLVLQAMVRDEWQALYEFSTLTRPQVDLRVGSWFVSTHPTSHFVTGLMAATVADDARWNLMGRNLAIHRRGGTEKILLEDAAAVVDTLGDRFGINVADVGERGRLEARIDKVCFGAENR

A further data set has as its system NAT. The data set can be described thus: Inhibition of NAT activity by PVK. In kind it is biochemical. The conditions noted are these: within 10 minutes, at less than 1 µM.
Data set [2] addresses T2, TBNAT (Mycobacterium tuberculosis, UniProt P9WJI5).
T2 construct: made in house
The data set can be described thus: ESI-MS analysis of covalent enzyme-inhibitor adducts. The data set is classed as binding, M. tuberculosis. The conditions noted are these: ratio not stated.

In a further data set the test system is M. bovis BCG. The data set can be described thus: microbe, parasite or virus in culture. In kind it is cell-based. As to conditions: for MIC: Mycobacterium tuberculosis variant bovis BCG, BCG, 336 h, read-out: MIC M. bovis BCG; for MIC M. bovis BCG: solid 7H10-OADC medium, no growth after 2 weeks.
The target of data set [3] is T1, MMNAT. The data set can be described thus: NAT-inhibition assay (Ac-CoA hydrolysis with hydralazine, Ellman's reagent). The conditions noted are these: for inhibition at 50 µM: read-out: MMNAT % Inhibition; for IC50: mean ± S.D. The data set is classed as biochemical, M. marinum. The method, then: (§1) An assay for measuring the formation of CoA was used to determine the activity of the enzyme in the presence of potential inhibitors. All the tested compounds were dissolved in dimethylsulphoxide (DMSO) and all reactions were carried out in the presence of 5% (v/v) DMSO. The enzyme (100–150 ng) was mixed with the inhibitors 1–5 (5 µL at a final concentration of 0–250 µM) and incubated for 15 min at 24°C prior to starting the reaction by adding 15 µL hydralazine and 12 µL Ac-CoA at final concentrations of 150 µM and 120 µM respectively, in a final total volume of 100 µL of 20 mM Tris-HCl pH 8. The assay was performed as an end-point read out measurement by stopping the reaction after 10 min at 24°C using 25 µL Ellman's reagent (5 mM 5,5′-dithiobis-(2-nitrobenzoate) solution in 6.4 M guanidine-HCl and 100 mM Tris-HCl, pH 7.3). The absorbance was measured at a wavelength of 405 nm within 2 min (Tecan Sunrise Plate Reader). The assays were repeated using a 10-fold enzyme concentration to exclude promiscuous non-specific inhibitors. The activity of the enzyme in the presence of 5% (v/v) DMSO was measured as a control. Inhibition values were determined as the ratio of the enzyme activity (expressed as the rate of CoA formation per microgram protein (µM/min.µg)) with the requisite compound, to the activity of the control without inhibitor. IC50 values were determined from the inhibition curves which were obtained by non-linear fitting of the % inhibition and the inhibitor concentration (µM) using the Log(inhibitor) vs. response module of GraphPad Prism 5.0.

Data set [4] addresses T1, MMNAT. The data set can be described thus: Time-dependent inhibition assay (Kitz and Wilson model). In kind it is biochemical, M. marinum. As to conditions: 24°C. How it is done:
The time course of the inhibition of NAT by the piperidinols was evaluated according to the Kitz and Wilson model. Irreversible inhibition, progressive with time, was measured for the piperidinol inhibitors (1–5) by the protocol described in Figure S2, and the values of the apparent first order constant (kobs) were determined (Table 1). Dilution rather than dialysis was used in this protocol due to the likely loss of activity upon dialysis (Figure 3). […] Examples of the curves obtained for enzyme activity against incubation time upon inhibition of MMNAT and TBNAT by the piperidinols are shown in Figure 4.
For the determination of the time dependence of interaction between enzymes and inhibitors, the inhibitor was diluted to less than 1% concentration. Incubation mixtures (20 µL) contained 0.06 mM MMNAT or TBNAT in 20 mM Tris-HCl, pH 8 and 5% (v/v) DMSO and variable concentrations of the inhibitors (0–50 µM) were prepared using the protocol described in Figure S1. Aliquots of 1 µL were removed from the reaction mixture at different time points (incubation-time) and diluted to 100 µL using the assay buffer containing HLZ and Ac-CoA to the final concentrations of 150 µM and 120 µM, respectively. The rate of Ac-CoA hydrolysis was measured over a three-minute time period. The reaction was stopped with 25 µL Ellman's reagent in 6.4 M guanidine and the absorbance was measured at a wavelength of 405 nm. The residual activity was measured as a percentage of a control prepared as described in Figure S1 and plotted against the incubation-time. The data were fitted using the Semilog line (X is linear, Y is Log) module of GraphPad Prism 5.0. The slope of each line is equivalent to (−kobs/2.303) at each inhibitor concentration.The controls in which no enzyme was present using CoA and Ellman's reagent gave the same results whether compound 1 was present or not.

Another data set relates to M. tuberculosis H37Rv. The data set can be described thus: Mycobacterial growth inhibition in vitro (spot culture on solid medium). In kind it is cell-based. The conditions noted are these: for MIC: Mycobacterium tuberculosis, H37RV, 336 h, read-out: MIC M. tuberculosis; for MIC M. tuberculosis: H37Rv, solid 7H10-OADC medium, no growth after 2 weeks.
Data set [5] deals with T2, TBNAT. The data set can be described thus: NAT-inhibition assay (Ac-CoA hydrolysis with hydralazine, Ellman's reagent). The data set is classed as biochemical, M. tuberculosis. The conditions noted are these: for inhibition at 50 µM: read-out: TBNAT % Inhibition; for IC50: mean ± S.D. How it is done:
as §1
(In general: In Ellman's method for cholinesterases, released thiocholine reacts with DTNB.)

Details of data set [6]: method as in PMID 16032973. As to conditions: cited from earlier work.
The mark [7] stands for this setting: 50 µM inhibitor, 150 µM HLZ, 120 µM Ac-CoA, 24°C, mean ± S.D. of triplicate.
The mark [8] stands for this setting: 150 µM HLZ, 120 µM Ac-CoA, 24°C.

Each structure is given as a SMILES string. In brackets after ≈: the same amount, converted by molar mass. Several values for one entry are separate records, joined by “and”; a condition that tells them apart may be missing. Identical values can stand only once. Like-named read-outs stand apart in the source and are kept apart here.

Results on 5 compounds are retold here after article PMC3532304, “Piperidinols That Show Anti-Tubercular Activity as Inhibitors of Arylamine N-Acetyltransferase: An Essential Enzyme for Mycobacterial Survival Inside Macrophages” (PLoS ONE, 2012).

T2 sequence (P9WJI5 whole entry): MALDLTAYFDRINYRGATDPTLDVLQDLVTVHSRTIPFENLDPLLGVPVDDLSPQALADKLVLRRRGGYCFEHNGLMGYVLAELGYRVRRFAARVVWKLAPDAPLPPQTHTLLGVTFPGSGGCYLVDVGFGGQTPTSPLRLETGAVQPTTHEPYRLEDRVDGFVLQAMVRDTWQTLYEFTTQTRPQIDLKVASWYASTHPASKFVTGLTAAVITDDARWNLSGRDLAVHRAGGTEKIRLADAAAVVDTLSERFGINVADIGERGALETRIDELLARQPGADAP

On to `C=CC(=O)c1ccccc1` [PVK, phenyl vinyl ketone, reference compound], for which, on MMNAT [1], the “Δm of enzyme-inhibitor adduct (MMNAT)” value is 132 Da and the “Molar ratio (inhibitor/protein) (MMNAT)” value was 1. In addition, the “inhibition of the NAT activity” value with NAT stood at 100%. The “mass difference of enzyme adduct (TBNAT)” value at TBNAT [2] was 132.
Broadly, the inhibition is the drop in the measured response relative to a control, in per cent. One may read the IC50 as the point on the concentration scale where inhibition reaches its midpoint. Low values mean greater potency in that assay, high ones weaker potency in that assay. Regarding `CC1(C)CC(N2CCC(O)(c3ccccc3)C(C(=O)c3ccccc3)C2)CC(C)(C)N1` (stereo not shown) [compound 4], the results for the MIC in the data set on M. bovis BCG and with M. tuberculosis H37Rv were 14.8 to 29.3 µM (≈ 6.22 to 12.3 µg/mL) and 2.3 to 11.7 µM (≈ 0.967 to 4.92 µg/mL), respectively. For the same compound, the values for the inhibition at 50 µM on MMNAT [3] (setting [7]) and at TBNAT [5] (setting [7]) were 100 ± 2% and 67 ± 4%, respectively. Moreover, the IC50 on MMNAT [3] (setting [8]) was 2700 ± 400 nM; against TBNAT [5] (setting [8]), 1100 ± 300 nM. Besides, the “Δm of enzyme-inhibitor adduct (MMNAT)” value on MMNAT [1] is 132 Da and 130.5 Da. Also, the “Molar ratio (inhibitor/protein) (MMNAT)” value on MMNAT [1] is given as 1. Moreover, on MMNAT [4] (inhibitor at 11.9 µM), the MMNAT kobs is listed as 586±115 10^−3 min^−1.
For `O=C(c1ccccc1)C1CN(C2CCCCC2)CCC1(O)c1ccccc1` (stereo not shown) [compound 3], the MIC with M. bovis BCG was 17.3 to 34.4 µM (≈ 6.29 to 12.5 µg/mL); in the data set with M. tuberculosis H37Rv, 2.8 to 13.8 µM (≈ 1.02 to 5.02 µg/mL). Moreover, the inhibition at 50 µM is 103 ± 1% on MMNAT [3] and 72 ± 60% on TBNAT [5]. Further, the “Δm of enzyme-inhibitor adduct (MMNAT)” value on MMNAT [1] is 132 Da and 131.5 Da. Further, the “Molar ratio (inhibitor/protein) (MMNAT)” value at MMNAT [1] is 1. The MMNAT kobs at MMNAT [4] (inhibitor at 5.9 µM) is recorded as 573±18 10^−3 min^−1. This compound also registered an IC50 against TBNAT [5] (setting [8]) of 4400 ± 100 nM.
For the compound `CN1CCC(O)(c2ccc(Cl)cc2)C(C(=O)c2ccc(Cl)cc2)C1` (stereo not shown) [compound 2], the “MIC M. bovis BCG” value against M. bovis BCG was in the range of 17.3 to 34.3 µM. For the same compound, the “MMNAT % Inhibition” value at MMNAT [3] (setting [7]) turned out to be 103±2%. In addition, it took 160 ± 10 nM to reach half-maximal inhibition against MMNAT [3] (setting [8]) (IC50). Besides, on MMNAT [1], the “Δm of enzyme-inhibitor adduct (MMNAT)” value was 164 Da and 164.3 Da; the “Molar ratio (inhibitor/protein) (MMNAT)” value stood at 1. The MMNAT kobs on MMNAT [4] (inhibitor at 11.9 µM) is listed as 110±2 10^−3 min^−1. Also, the “MIC M. tuberculosis” value against M. tuberculosis H37Rv fell in the range of 2.7 to 13.7 µM. Further, on TBNAT [5] (setting [7]), the “TBNAT % Inhibition” value worked out at 98±1%. Moreover, the IC50 at TBNAT [5] (setting [8]) stood at 1600 ± 100 nM.
As for `CN(CCC(=O)c1ccccc1)CCC(=O)c1ccccc1` [compound 5], in the data set on M. bovis BCG, the “MIC M. bovis BCG” value lay within 21.3 to 42.3 µM. For the same compound, on MMNAT [3] (setting [7]), the “MMNAT % Inhibition” value amounted to 101±2%. The IC50 against MMNAT [3] (setting [8]) was 140 ± 20 nM; against TBNAT [5] (setting [8]), 1200 ± 100 nM. Also, the “Δm of enzyme-inhibitor adduct (MMNAT)” value on MMNAT [1] was 132 Da and 129.7 Da. For the same compound, the “Molar ratio (inhibitor/protein) (MMNAT)” value on MMNAT [1] is given as 1. In addition, in data set [6], the “toxicity compared to the cyclic piperidinol” value is given as “greater toxicity”. Besides, on MMNAT [4] (inhibitor at 11.9 µM), the MMNAT kobs was 34±2 10^−3 min^−1. Also, the “MIC M. tuberculosis” value against M. tuberculosis H37Rv lay in the range of 3.4 to 16.9 µM. The “TBNAT % Inhibition” value on TBNAT [5] (setting [7]) was 101±2%.
